In patent US20030073850A1, “4-Imidazole derivatives of benzyl and restricted benzyl sulfonamides, sulfamides, ureas, carbamates, and amides and their use” (priority 1998, published 2003):

What was measured:
α1B (rat spleen) = target: T1, α1B (rat spleen) (Rattus norvegicus, UniProt P15823); experiment: Agonist tissue response, contraction of rat spleen; assay type: biochemical; settings: read-out: Agonist Tissue Response (pD2) α1B (rat spleen) (converted)
T1 construct: α1B (rat spleen) and α1D (rat aorta) receptors; from tissue; host or cells: rat spleen
T1 sequence (P15823 1-515): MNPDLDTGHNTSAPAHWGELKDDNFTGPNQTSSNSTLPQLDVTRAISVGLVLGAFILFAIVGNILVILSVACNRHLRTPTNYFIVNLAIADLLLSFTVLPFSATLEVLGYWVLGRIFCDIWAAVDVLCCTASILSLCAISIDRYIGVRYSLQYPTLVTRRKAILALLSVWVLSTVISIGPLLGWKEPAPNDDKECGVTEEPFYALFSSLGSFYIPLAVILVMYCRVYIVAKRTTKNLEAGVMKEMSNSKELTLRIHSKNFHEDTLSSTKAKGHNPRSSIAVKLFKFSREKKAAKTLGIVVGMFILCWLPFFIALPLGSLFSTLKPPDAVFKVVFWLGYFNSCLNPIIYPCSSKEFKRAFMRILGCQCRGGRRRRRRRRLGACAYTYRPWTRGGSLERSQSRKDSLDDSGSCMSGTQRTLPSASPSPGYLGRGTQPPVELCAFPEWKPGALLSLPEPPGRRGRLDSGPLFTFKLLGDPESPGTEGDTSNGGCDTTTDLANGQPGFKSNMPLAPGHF

[1] = target: T2, α1A (rat submaxillary gland) (Rattus norvegicus, UniProt P43140); experiment: Radioligand binding, [3H]-prazosin, α1A
T2 construct: α1A (rat submaxillary gland); from tissue; host or cells: rat submaxillary gland
T2 sequence (P43140 1-466): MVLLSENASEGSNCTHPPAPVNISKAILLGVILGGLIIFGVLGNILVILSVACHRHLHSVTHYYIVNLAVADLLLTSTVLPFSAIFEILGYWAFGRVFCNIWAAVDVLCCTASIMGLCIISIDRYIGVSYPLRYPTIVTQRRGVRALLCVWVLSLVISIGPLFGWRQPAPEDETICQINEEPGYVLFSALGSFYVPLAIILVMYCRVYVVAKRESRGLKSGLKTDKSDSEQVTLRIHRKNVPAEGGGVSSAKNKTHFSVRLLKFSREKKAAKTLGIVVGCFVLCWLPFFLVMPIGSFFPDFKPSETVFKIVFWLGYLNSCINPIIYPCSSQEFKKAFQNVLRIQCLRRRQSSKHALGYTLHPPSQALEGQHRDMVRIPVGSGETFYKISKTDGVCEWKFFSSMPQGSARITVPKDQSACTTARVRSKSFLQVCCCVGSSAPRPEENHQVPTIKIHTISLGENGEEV
Outline: (§1)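 [3H]-prazosin radioligand displacement; α1A from rat submaxillary gland tissue, α1b hamster and α1d rat receptors each expressed in mouse fibroblasts.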

anesthetized dogs = experiment: Intraurethral pressure (IUP) in anesthetized dogs; assay type: in vivo, dog
Excerpt: Female Beagle dogs (Marshall Farms, North Rose, N.Y.) greater that 2 years of age and weighing between 12 and 15 kg were used in these studies. At least 2 weeks prior to any agonist dosing, dogs were instrumented for the chronic measurement of arterial blood pressure by implanting a telemetry transducer/transmitter (TA11PA-C40, Data Sciences International, St. Paul, Minn.) into a carotid artery.
On the test day, dogs fasted since the previous afternoon were pre-anesthetized with thiopental sodium 15 mg/kg i.v. (Pentothal™, Abbott) and intubated. Anesthesia was maintained by allowing the dog to spontaneously breathe a mixture of isoflurane (2.5 to 3 volume %) and oxygen delivered by a Narkomed Standard anesthesia system (North American Drager, Telford, Pa.). An Abbocath-T™ i.v. catheter (18-G, Abbott) was inserted into the cephalic vein for the administration of agonists. A telemetry receiver (RA1310, DataSciences) was placed under the head of each dog and was interfaced to a computerized data acquisition system (Modular Instruments Inc.(MI2), Malvern, Pa.) which allowed for the continuous calibrated recording of arterial blood pressure which was electronically filtered to determine its mean value (MAP).
Dogs with chronic telemetry implants anesthetized as described above were placed in dorsal recumbency and a balloon catheter was inserted into the urethral orifice and advanced approximately 15 cm until the tip was well inside the bladder. The balloon was then inflated with 1 ml of room air and the catheter slowly withdrawn until resistance (corresponding to the bladder neck) was evident. The balloon was then deflated and the catheter withdrawn additional 2 cm. The balloon was then reinflated and its catheter port connected to a Gould Statham P23Dd pressure transducer interfaced to a computerized data acquisition system (Modular Instruments, Inc., Malvern, Pa.) for the measurement of the intraurethral pressure. Increasing iv doses of test agonists were administered and the maximum effect of each dose on IUP was recorded. The effect of each dose was allowed to return to baseline before the next dose was given.
From the resulting dose response curve, an ED5 value, for the dose causing a maximum increase in IUP of 5 mm Hg, could be estimated. An ED20 value for the dose causing a maximum increase in MAP of 20 mm Hg could also be estimated. A selectivity ratio of MAP ED20 vs. IUP ED, was calculated.

[2] = target: T3, α1b (hamster receptor expressed in mouse fibroblasts) (Mesocricetus auratus, UniProt P18841); experiment: Radioligand binding, [3H]-prazosin, α1b; settings: hamster receptor expressed in mouse fibroblasts, [3H]-prazosin; read-out: Radioligand Binding Ki α1b (Hamster)
T3 construct: expressed in transfected cells; host or cells: mouse fibroblasts
T3 sequence (P18841 1-515): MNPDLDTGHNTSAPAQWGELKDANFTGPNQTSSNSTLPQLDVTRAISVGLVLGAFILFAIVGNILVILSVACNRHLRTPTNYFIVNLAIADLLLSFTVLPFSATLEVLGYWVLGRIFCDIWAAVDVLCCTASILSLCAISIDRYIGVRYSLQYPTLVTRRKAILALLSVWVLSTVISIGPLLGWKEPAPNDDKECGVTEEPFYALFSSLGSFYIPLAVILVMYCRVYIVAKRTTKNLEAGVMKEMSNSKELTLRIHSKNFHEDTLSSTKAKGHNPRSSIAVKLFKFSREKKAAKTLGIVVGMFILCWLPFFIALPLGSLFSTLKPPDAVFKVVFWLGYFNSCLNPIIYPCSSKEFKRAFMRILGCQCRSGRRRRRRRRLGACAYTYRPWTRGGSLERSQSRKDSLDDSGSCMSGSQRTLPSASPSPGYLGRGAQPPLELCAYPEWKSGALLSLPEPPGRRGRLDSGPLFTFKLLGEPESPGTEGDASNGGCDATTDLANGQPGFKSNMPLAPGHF
Outline: as §1

CCS(=O)(=O)Nc1cccc2c1OCCC2c1c[nH]cn1 (single isomer, unassigned; (+)) [Example 95, (+) N-[4-(1H-imidazol-4-yl)-3,4-dihydro-2H-chromen-8-yl]ethanesulfonamide]
EC50 (α1B (rat spleen)): 28.2 µM
Ki [1]: 183 nM
ED (5 mm Hg) (anesthetized dogs; Canis lupus familiaris, iv dose causing a maximum increase in IUP of 5 mm Hg, anesthetized female Beagle dogs, read-out: Mean IUP ED5): 0.113 µmol/kg
Mean Selectivity Ratio MAP ED20/IUP ED5 (anesthetized dogs; anesthetized dogs, iv): 0.99
Ki [2]: 10 µM
